This note sets out measurements from a melting point compilation (Tetko et al.; mined from patent text by program, amines drawn as free bases though some values may be those of a salt).

A word on the melting point: it is the temperature, or range, at which the solid turns liquid.

Take `COc1cc(COc2ccc3nc(NC(=O)OCCN(C)C)cn3n2)cc(OC)c1OC`: the melting point fell in the range of 185 to 186 °C.

As for `COc1cccc(-n2c3c(c(=O)c4cccnc42)CCO3)c1`, the melting point fell in the range of 194 to 196 °C.

The compound `Cc1cc(-n2ccc(OCC3CC3)cc2=O)sc1C(=O)NCc1ccccc1` displayed a melting point of 175 to 177 °C.

`Cc1oc(-c2ccc(OCC(F)(F)F)cc2)nc1COc1ccc(CN(O)C(N)=O)cc1`: the melting point is 159 to 161 °C.

`O=c1[nH]c2cscc2c(=O)n1CCCCN1CCN(c2cccc(C(F)(F)F)c2)CC1` registered a melting point of 126 to 128 °C.

Regarding `Cc1cc(C(N)=O)ncc1C(c1c(F)ccc(F)c1F)S(=O)(=O)c1ccc2ccoc2c1` (configuration not stated), the melting point fell in the range of 237 to 240 °C.

`CCCCCS(=O)(=O)NC(=O)c1ccc2[nH]cc(Cc3ccc(Cl)cc3Cl)c2c1`: the melting point is 157 to 158 °C.

As to `CC(C)(C)OC(=O)N1CCC(CN2C(=O)C3(COc4cc5c(cc43)C(C)(C)CO5)c3ccccc32)CC1` (configuration not stated), the melting point fell in the range of 65 to 75 °C.

`CCOC(=O)Cc1nc(-c2ccc(F)cc2)oc1CC(C)C` had a melting point of 60 to 61 °C.

For the compound `CCn1nc(OCC(=O)C(C)(C)C)c(-c2ccc(S(C)(=O)=O)cc2)c1-c1ccc(F)cc1`, the melting point was 63 to 66 °C.

`Ic1ccc(SSc2ccc(I)c3ccccc23)c2ccccc12` gave a melting point of 129 to 131 °C.

`CC(O)(c1ccc(F)cc1)C1CCN(CCCC(=O)c2ccc(F)cc2)CC1` (configuration not stated): the melting point lay within 116 to 118 °C.

`C1COCCOCCNCCOCCOCCOCCN1` gave a melting point of 0 °C.

`O=c1c2cnc(-c3ccccc3)nc2sn1CCN1CCOCC1`: the melting point fell in the range of 163 to 165 °C.

In the case of `CC(=O)NC[C@H]1CN(c2ccc(N3CCC(Cc4nnc(-c5ccccc5)o4)CC3)c(F)c2)C(=O)O1`, the melting point lay in the range of 199 to 200 °C.

In turn, `CCN(CC)C(=O)COC(=O)c1ccc(N)cc1` returned a melting point of 135 to 136 °C.

Consider `Oc1ccnc2[nH]cc(-c3ccncn3)c12`, for which the melting point is above 210 °C.

Regarding `[N-]=[N+]=NCC(COC(C(F)(F)F)(C(F)(F)F)C(F)(F)F)(COC(C(F)(F)F)(C(F)(F)F)C(F)(F)F)C(=O)O`, the melting point was in the range of 97 to 98 °C.

`Cn1cc2c(C3C(=O)Nc4ccc(Br)cc43)nc(NCCc3cccnc3)nc2n1` (configuration not stated) came in with a melting point of 314 to 317 °C.

Take `Cc1c(C2=NOC(CN3CCC(Cc4ccc(F)cc4)CC3)C2)cc2oc(=O)[nH]c2c1Cl` (configuration not stated): the melting point lay in the range of 131 to 132 °C.

In turn, `CC(=O)OC1CSC(Oc2cccnc2-c2c(C)noc2C)C(OC(C)=O)C1OC(C)=O` (configuration not stated) displayed a melting point of 68 to 72 °C.

`CC(C)(C)c1cc(C(=O)Sc2ccccn2)cc(C(C)(C)C)c1` yielded a melting point of 73 to 74 °C.

The compound `COC(=O)C1=C(C)NC(C)=C(S(=O)(=O)c2ccc(OC)cc2)C1c1ccccc1Cl` (configuration not stated) yielded a melting point of 176 to 178 °C.

As for `Cc1cc2c(s1)Oc1ccccc1N=C2N1CC2CCC(C1)N2C`, the melting point is 156 to 159 °C.

In the case of `O=C(O)c1cc2cc(O)ccc2o1`, the melting point is 223 to 228 °C.

As to `O=C(O)C1=C(S(=O)(=O)c2ccccc2)CC2CC(=O)C12` (configuration not stated), the melting point fell in the range of 205 to 207 °C.

In turn, `COC(=O)CP(=O)(O)C(CCCc1ccccc1)NC(=O)OCc1ccccc1` (configuration not stated) displayed a melting point of 107 to 109 °C.

`CC(C)(C)c1cc(Cc2nc3ccccc3o2)cc(C(C)(C)C)c1O` displayed a melting point of 94 to 96 °C.

On to `CC(=O)OC1CSC(Oc2cncc(-c3cccs3)c2)C(OC(C)=O)C1OC(C)=O` (configuration not stated), for which the melting point came out at 166 °C.

`COc1cccc2ocnc12` returned a melting point of 72 to 74 °C.

For the compound `COc1ccc(-c2c(Cl)c(CN3C(=O)CSC3=O)nc3sc4c(c23)CC[C@H](C(N)=O)C4)cc1`, the melting point lay within 145 to 148 °C.

The compound `CCNc1cc2ccc(OC)c(OC)c2c2cc(C)ccc12` returned a melting point of 100 to 102 °C.

On to `CCOc1cc2cc(CO)cc(-c3ccnc(Cl)c3)c2cc1OCC`, for which the melting point lay within 135 to 137 °C.

Turning to `COc1ccc(CNc2nc(-c3ccc(C(=O)O)cc3)nc3c2c2c(n3C(C)c3ccccc3)CCCC2)cc1Cl` (configuration not stated), the melting point came to 179 °C.

`O=C1CSC(=S)N1c1ccccn1` came in with a melting point of 98 °C.

`CS(=O)(=O)c1cc(C(=O)N=C(N)N)ccc1C1C=CCC1` (configuration not stated): the melting point was 188 to 190 °C.

Regarding `CCCOC(=O)c1cc(-n2c(OC)nc(C(F)(F)F)c(F)c2=O)c(F)cc1Cl`, the melting point lay within 76 to 78 °C.

The compound `CN1CCN(C(=O)Cn2c(=O)sc3ncc(Cl)cc32)CC1` registered a melting point of 198 to 200 °C.

The compound `COC(=O)CCCc1cc2cc(Cl)ccc2n1S(=O)(=O)c1ccc2c(c1)CN(C(C)=O)CC2` showed a melting point of 50 to 52 °C.

`CS(=O)(=O)NC(CCC(O)(Cn1cncn1)c1ccc(F)cc1F)C(=O)O` (configuration not stated) showed a melting point of 165 to 173 °C.

Regarding `Cc1nc2c(c3c1[nH]c1cccc(F)c13)C(=O)CC(C)(C)C2`, the melting point fell in the range of 246 to 247 °C.

`Cc1ccccc1N1CCN(Cc2c[nH]c3ncccc23)CC1`: the melting point was in the range of 174 to 176 °C.

With `CC(=O)CCc1c(OC(C)=O)cc(C(C)C)c(OC(C)=O)c1C(C)C`, the melting point is 108 to 112 °C.

The compound `CCNC(=O)n1nc(Oc2ccc([N+](=O)[O-])cc2C(F)(F)F)cc1C` showed a melting point of 95 to 97 °C.

Regarding `CC(=O)NC[C@H]1CN(c2ccc(N3CCC4(CC3)CO4)c(F)c2)C(=O)O1`, the melting point lay in the range of 152 to 154 °C.

With `COc1ccc(C#Cc2cc(OC)c(OC)cc2C=O)cc1OC`, the melting point fell in the range of 148 to 149 °C.

`O=C1C=CC(O)(c2nc3ccccc3s2)C(Cl)=C1` (configuration not stated): the melting point was 140 to 143 °C.

In turn, `Cc1cc2c(cc1Cl)N(C(=O)Nc1ccc(C)c(-c3cccnc3)c1)CC2` yielded a melting point of 202 to 203 °C.

`COc1ccc(Oc2c(-c3ccc(S(C)(=O)=O)cc3)cnn(CC(F)(F)F)c2=O)cc1`: the melting point fell in the range of 194 to 195 °C.

`N#Cc1ccc(C2=Nc3ccc(-c4ccccc4F)cc3NC(=O)C2)s1` yielded a melting point above 250 °C.

Compound `O=Cc1ncc2n1-c1ccc(Cl)cc1C(c1ccccc1F)=NC2` displayed a melting point of 182 to 183 °C.

In the case of `O=C1c2ccccc2C(=O)N1CCCCCCSc1ccc2ccccc2c1`, the melting point is 109 to 110 °C.

In the case of `CC(=O)N1CC(=O)NC(=O)N1Cc1ccc(Cl)cc1`, the melting point is 97 °C.

The compound `Cc1ccc([C@H]2Sc3cc(C)ccc3NC(=O)[C@H]2O)cc1` registered a melting point of 212 to 214 °C.

Take `Cc1cc(C(=O)Nc2cccc(C3CN4CCSC4=N3)c2)n(C)n1` (configuration not stated): the melting point was in the range of 163 to 164 °C.

The compound `Oc1cccc2c1c1cccc(Cl)c1n2Cc1ccccc1` gave a melting point of 163 to 166 °C.

Compound `Cn1ccc(-c2cc(OC(F)F)n(-c3ccc(NC(=O)c4ccncc4F)cc3)n2)c1` came in with a melting point of 135 to 136 °C.

Compound `COc1ccccc1C(=O)Nc1cc(C(=O)NCc2ccccc2)ccn1` came in with a melting point of 205 to 207 °C.

On to `Cc1ccc(S(=O)(=O)N(C(=O)OC(C)(C)C)[C@@H]2CCCC[C@H]2N)cc1`, for which the melting point is 137 to 139 °C.

In turn, `CCCC=CCOc1ccc(C(C)(C)CC(C)(C)C)cc1-n1nc2ccccc2n1` returned a melting point of 80 to 81 °C.

Compound `Oc1ccccc1-c1cnc2cnc(-c3ccccc3O)nc2c1` returned a melting point of 239 to 240 °C.

Compound `CC(C)(C)c1ccc(C(=O)Nc2cn3cc(C#N)ccc3n2)cc1` gave a melting point of 300 to 301 °C.

`CCOC(C)O[C@@H](C(=O)OC(=O)[C@H](OC(C)OCC)[C@@H](NC(=O)OC(C)(C)C)c1ccccc1)[C@@H](NC(=O)OC(C)(C)C)c1ccccc1` (some centres not stated) returned a melting point of 43 °C.

In turn, `OC(=S)CCC1CCN(Cc2ccc3c(c2)Nc2nccnc2S3)CC1` registered a melting point of 110 to 113 °C.

As for `Cc1c(C=CCN2CCOCC2)[nH]c(=O)c2c1ccc1nc(Nc3c(Cl)cccc3Cl)n(C)c12`, the melting point is 175 to 177 °C.

Regarding `CC(C)(C)OC(=O)CN1CC(c2ccccc2)CCC(N=[N+]=[N-])C1=O` (configuration not stated), the melting point was in the range of 119 to 121 °C.

As to `Cn1cc(C2c3ccc(Cl)cc3C=Cc3sc(N)nc32)c(=O)[nH]c1=O` (configuration not stated), the melting point was above 240 °C.

Consider `Cc1ccc(C(=O)C(F)(F)S(=O)(=O)c2ccccc2)cc1`, for which the melting point lay in the range of 79 to 81 °C.

`O=Cc1ccc(OC2CCCC2)c(O)c1` yielded a melting point of 87 to 89 °C.

On to `O=c1cc(C2(Br)CCCCC2)oc2c(CBr)cccc12`, for which the melting point fell in the range of 134 to 135 °C.

`O=C(Nc1ccc(S(=O)(=O)c2ccccc2)cc1)C1(O)CCCC1` came in with a melting point of 214 to 216 °C.

`Cc1cc2cc(CN3CCCCCC3)cnc2cc1NC(=O)c1ccc(-c2ccc(Cl)cc2)cc1` had a melting point of 204 °C.

On to `CCCCCCCCCCNC(=O)c1cc(C(=O)NCCCCCCCCCC)cc(N(CC(=O)O)CC(=O)O)c1`, for which the melting point lay in the range of 164 to 167 °C.

In turn, `CC1(C)CON(Cc2ccc(NC(=O)c3ncccc3C(=O)O)cc2Cl)C1=O` gave a melting point of 94 to 96 °C.

With `CCOC(=O)c1cn(-c2ccc(F)cc2)c2cc(C#C[Si](C)(C)C)ccc2c1=O`, the melting point lay in the range of 247 to 249 °C.

`CCc1cccc(CC(=O)O)c1OCCCc1cn(Cc2nc(-c3ccccc3)oc2C)nc1C(C)C`: the melting point lay in the range of 94 to 95 °C.

Take `Cc1cc(Cc2c(F)cc(N)cc2F)n(C)c1C(=O)c1ccc(Cl)cc1`: the melting point was 208 to 210 °C.

The compound `CNC(N)=C(CCSCc1csc(CN(C)C)n1)[N+](=O)[O-]` yielded a melting point of 130 to 132 °C.

`OC1(c2ccccc2)CCN(CCC2COc3ccccc3O2)CC1` (configuration not stated) had a melting point of 142 °C.

In turn, `CCOC(=O)C1CCCC1NC(=O)C=C(C)OC` (configuration not stated) returned a melting point of 74 °C.

The compound `Cn1nnnc1SCCl` had a melting point of 55 to 57 °C.

`Brc1csc(C#Cc2ccccc2)n1` yielded a melting point of 79 to 82 °C.

In the case of `c1ccc(Cn2nc(-c3ccncc3)nc2-c2ccncc2)cc1`, the melting point was 136 to 138 °C.

As for `CCC(=CC(CNC(=O)c1cnccc1C(N)=O)=NO)C(C)[N+](=O)[O-]` (configuration not stated), the melting point was in the range of 122 to 123 °C.

`O=c1[nH][nH]c2c1c(O)nc1cc(Cl)c(Cl)cc12` registered a melting point above 350 °C.

For the compound `C#CC(C)NC(=O)CCCCl` (configuration not stated), the melting point is 50 to 51 °C.

In turn, `CCCOc1ncc(C(C)=O)cc1-c1nc2c(CC)n(C3CN(C(C)=O)C3)nc2c(=O)[nH]1` returned a melting point of 229 to 230 °C.
